Here are results for 22 compounds from patent US20230113609A1, “SSTR5 ANTAGONISTS” (Kallyope, Inc., priority 2019, published 2023).

The assay concerns the target T1, human SSTR5 (Homo sapiens, UniProt P35346).
T1 construct: expressed in transfected cells
Nature of the assay: Inositol phosphate accumulation assay (IP1 HTRF, antagonist mode). In kind it is cell-based. Particulars: CHO-K1 cells co-expressing human SSTR5 with Gqi5, SST28 agonist at concentration generating 90% of full activation. From the text: CHO-K1 cells stably co-expressing human SSTR5 with Gqi5 were developed using Jump-In technology from Thermo-Fisher. Gqi5 is the mouse G alpha q protein, that was modified to interact with Gi-coupled GPCRs as described previously (Coward, P.; Chan, S. D.; Wada, H. G.; Humphries, G. M.; Conklin, B. R. Chimeric G proteins Allow a High-Throughput Signaling Assay of Gi-Coupled Receptors. Anal Biochem. 1999, 270(2),242-248).
Co-expression of Gqi5 with SSTR5 allowed monitoring of SSTR5 activity by following IP1 accumulation. The assay was performed in a 384-well plate format using the IP1 assay kit from Cis-Bio in an antagonist mode, i.e., pre-incubation with antagonist following by receptor activation by agonist at a concentration generating 90% of full activation. Frozen cells expressing human SSTR5 were thawed, washed, and then plated in DMEM supplemented with 10% FBS and non-essential amino acids. 40 μL of 2.5×10^5 cells/mL were plated on a Poly D-Lysine coated 384-well white plate. The cells were then incubated for 16 hr. at 37° C/5% CO2. After 16 hour the medium was removed, and 10 μL of stimulation buffer was added to the cells. Test compounds were dissolved in DMSO at concentrations 2000-fold that of the final assay concentrations. 7.5 nLcompound solutions were transferred to the cell plates using a Labcyte Echo® acoustic liquid handler. The plates were then incubated for 15 minutes at 37° C/5%CO2. After the first incubation, 5 μL of 30 nM SST28 were added to the cells, and the cells were incubated for 90 minutes at 37° C/5%CO2. 5 μL of detection buffer (prepared as described in the IP-1 kit) was added to each well, and the plates were incubated at RT for 1 hour.
TR-FRET was measured using a ClarioSTAR plate reader, calculating the ratio between emissions at 665 nm and 620 nm (HTRF ratio). The HTRF ratio for positive (Max) and negative (Min) controls were used to normalize HTRF data and generate values for % inhibition. IC50 and maximal inhibition values were determined using a standard 4-parameter fit.
(TR-FRET usually uses a lanthanide donor and a delayed reading to cut background.)

T1 sequence (P35346 whole entry): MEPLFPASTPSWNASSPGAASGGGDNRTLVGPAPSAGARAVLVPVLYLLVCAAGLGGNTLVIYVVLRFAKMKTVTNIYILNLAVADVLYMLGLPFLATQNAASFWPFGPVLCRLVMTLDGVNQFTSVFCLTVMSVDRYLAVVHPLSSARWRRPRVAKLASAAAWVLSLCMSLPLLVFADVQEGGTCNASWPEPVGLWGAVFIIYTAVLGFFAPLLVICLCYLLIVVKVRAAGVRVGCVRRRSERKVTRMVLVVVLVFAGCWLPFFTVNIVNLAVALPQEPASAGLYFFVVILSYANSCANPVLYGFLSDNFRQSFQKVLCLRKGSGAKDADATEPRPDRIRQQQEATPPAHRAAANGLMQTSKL

Usually IC50 stands for the concentration that gives 50% inhibition. For `CCOc1cc(C(=O)OC)c(C2CC2)cc1CN1CCC2(CC1)CC(=O)N(c1ccc(C(=O)NCCC(O)CO)cc1)C2` (stereo not shown) [Example 48, methyl 2-cyclopropyl-4-((2-(4-((3,4-dihydroxybutyl)carbamoyl)phenyl)-3-oxo-2,8-diazaspiro[4.5]decan-8-yl)methyl)-5-ethoxybenzoate], the IC50 fell in the range of 100 to 1000 nM.

The compound `CCOc1cc(C(=O)OC)c(C2CC2)cc1CN1CCC2(CC1)CC(=O)N(c1ccc(C(=O)NCCOCCOCCO)cc1)C2` [Example 49, methyl 2-cyclopropyl-5-ethoxy-4-((2-(4-((2-(2-(2-hydroxyethoxy)ethoxy)ethyl)carbamoyl)phenyl)-3-oxo-2,8-diazaspiro[4.5]decan-8-yl)methyl)benzoate] showed an IC50 of 100 to 1000 nM.

The compound `CCOc1cc(C(=O)OC)c(C2CC2)cc1CN1CCC2(CC1)CC(=O)N(c1ccc(C(=O)NCCS(N)(=O)=O)cc1)C2` [Example 50, methyl 2-cyclopropyl-5-ethoxy-4-((3-oxo-2-(4-((2-sulfamoylethyl)carbamoyl)phenyl)-2,8-diazaspiro[4.5]decan-8-yl)methyl)benzoate] came in with an IC50 of 100 to 1000 nM.

The compound `CCOc1cc(C(=O)OC)c(C2CC2)cc1CN1CCC2(CC1)CC(=O)N(c1ccc(C(=O)NCCCCS(N)(=O)=O)cc1)C2` [Example 51, methyl 2-cyclopropyl-5-ethoxy-4-((3-oxo-2-(4-((4-sulfamoylbutyl)carbamoyl)phenyl)-2,8-diazaspiro[4.5]decan-8-yl)methyl)benzoate] came in with an IC50 of 100 to 1000 nM.

For the compound `CCOc1cc(C(=O)OC)c(C2CC2)cc1CN1CCC2(CC1)CC(=O)N(c1ccc(C(=O)N3CCC(S(N)(=O)=O)CC3)cc1)C2` [Example 52, methyl 2-cyclopropyl-5-ethoxy-4-((3-oxo-2-(4-(4-sulfamoylpiperidine-1-carbonyl)phenyl)-2,8-diazaspiro[4.5]decan-8-yl)methyl)benzoate], the IC50 fell in the range of 100 to 1000 nM.

As to `CCOc1cc(C(=O)OC)c(C2CC2)cc1CN1CCC2(CC1)CC(=O)N(c1ccc(C(=O)N3CCC(CS(N)(=O)=O)CC3)cc1)C2` [Example 53, methyl 2-cyclopropyl-5-ethoxy-4-((3-oxo-2-(4-(4-(sulfamoylmethyl)piperidine-1-carbonyl)phenyl)-2,8-diazaspiro[4.5]decan-8-yl)methyl)benzoate], the IC50 fell in the range of 100 to 1000 nM.

`CCOc1cc(C(=O)OC)c(C2CC2)cc1CN1CCC2(CC1)CN(c1ccc(C(=O)NC[C@H](O)[C@@H](O)[C@H](O)[C@H](O)CO)cc1)C(=O)O2` [Example 54, methyl 2-cyclopropyl-5-ethoxy-4-((2-oxo-3-(4-(((2S,3R,4R,5R)-2,3,4,5,6-pentahydroxyhexyl)carbamoyl)phenyl)-1-oxa-3,8-diazaspiro[4.5]decan-8-yl)methyl)benzoate] registered an IC50 of at most 100 nM.

`CCOc1cc(C(=O)OC)c(C2CC2)cc1CN1CCC2(CC1)CC(=O)N(c1ccc(C(=O)NCCCNC(=N)N)cc1)C2` [Example 55, methyl 2-cyclopropyl-5-ethoxy-4-((2-(4-((3-guanidinopropyl)carbamoyl)phenyl)-3-oxo-2,8-diazaspiro [4.5]decan-8-yl)methyl)benzoate] registered an IC50 of 100 to 1000 nM.

`CCOc1cc(C(=O)OC)c(C2CC2)cc1CN1CCC2(CC1)CN(c1ccc(C(=O)NCCOCCO)cc1)C(=O)O2` [Example 56, methyl 2-cyclopropyl-5-ethoxy-4-((3-(4-((2-(2-hydroxyethoxy)ethyl)carbamoyl)phenyl)-2-oxo-1-oxa-3,8-diazaspiro[4.5]decan-8-yl)methyl)benzoate] displayed an IC50 of at most 100 nM.

`CCOc1cc(C(=O)OC)c(C2CC2)cc1CN1CCC2(CC1)CN(c1ccc(C(=O)NCCCNC(N)=O)cc1)C(=O)O2` [Example 57, methyl 2-cyclopropyl-5-ethoxy-4-((2-oxo-3-(4-((3-ureidopropyl)carbamoyl)phenyl)-1-oxa-3,8-diazaspiro [4.5]decan-8-yl)methyl)benzoate] displayed an IC50 of at most 100 nM.

The compound `CCOc1cc(C(=O)OC)c(C2CC2)cc1CN1CCC2(CC1)CN(c1ccc(C(=O)NCCCS(=O)(=O)O)cc1)C(=O)O2` [Example 58, 3-(4-(8-(5-cyclopropyl-2-ethoxy-4-(methoxycarbonyl)benzyl)-2-oxo-1-oxa-3,8-diazaspiro[4.5]decan-3-yl)benzamido)propane-1-sulfonic acid] came in with an IC50 of at most 100 nM.

On to `CCOc1cc(C(=O)OC)c(C2CC2)cc1CN1CCC2(CC1)CN(c1ccc(C(=O)NCCCS(N)(=O)=O)cc1)C(=O)O2` [Example 59, methyl 2-cyclopropyl-5-ethoxy-4-((2-oxo-3-(4-((3-sulfamoylpropyl)carbamoyl)phenyl)-1-oxa-3,8-diazaspiro[4.5]decan-8-yl)methyl)benzoate], for which the IC50 is at most 100 nM.

Regarding `CCOc1cc(-c2ccc(F)cc2)c(C2CC2)cc1CN1CCC2(CC1)CN(c1ccc(C(=O)NC[C@H](O)[C@@H](O)[C@H](O)[C@H](O)CO)cc1)C(=O)O2` [Example 60, 4-(8-((2-cyclopropyl-5-ethoxy-4′-fluoro-[1,1′-biphenyl]-4-yl)methyl)-2-oxo-1-oxa-3,8-diazaspiro[4.5]decan-3-yl)-N-((2S,3R,4R,5R)-2,3,4,5,6-pentahydroxyhexyl)benzamide], the IC50 is at most 100 nM.

`CCOc1cc(-c2ccc(F)cc2)c(C2CC2)cc1CN1CCC2(CC1)CN(c1ccc(C(=O)NCCOCCO)cc1)C(=O)O2` [Example 61, 4-(8-((2-cyclopropyl-5-ethoxy-4′-fluoro-[1,1′-biphenyl]-4-yl)methyl)-2-oxo-1-oxa-3,8-diazaspiro [4.5]decan-3-yl)-N-(2-(2-hydroxyethoxy)ethyl)benzamide]: the IC50 was at most 100 nM.

For the compound `CCOc1cc(-c2ccc(F)cc2)c(C2CC2)cc1CN1CCC2(CC1)CN(c1ccc(C(=O)NCCCNC(N)=O)cc1)C(=O)O2` [Example 62, 4-(8-((2-cyclopropyl-5-ethoxy-4′-fluoro-[1,1′-biphenyl]-4-yl)methyl)-2-oxo-1-oxa-3,8-diazaspiro[4.5]decan-3-yl)-N-(3-ureidopropyl)benzamide], the IC50 is at most 100 nM.

In turn, `CCOc1cc(-c2ccc(F)cc2)c(C2CC2)cc1CN1CCC2(CC1)CN(c1ccc(C(=O)NCCCS(=O)(=O)O)cc1)C(=O)O2` [Example 63, 3-(4-(8-((2-cyclopropyl-5-ethoxy-4′-fluoro-[1,1′-biphenyl]-4-yl)methyl)-2-oxo-1-oxa-3,8-diazaspiro[4.5]decan-3-yl)benzamido)propane-1-sulfonic acid] registered an IC50 of at most 100 nM.

`CCOc1cc(-c2ccc(F)cc2)c(C2CC2)cc1CN1CCC2(CC1)CN(c1ccc(C(=O)NCCCS(N)(=O)=O)cc1)C(=O)O2` [Example 64, 4-(8-((2-cyclopropyl-5-ethoxy-4′-fluoro-[1,1′-biphenyl]-4-yl)methyl)-2-oxo-1-oxa-3,8-diazaspiro[4.5]decan-3-yl)-N-(3-sulfamoylpropyl)benzamide]: the IC50 is at most 100 nM.

As to `CCOc1cc(-c2ccc(F)cc2)c(C2CC2)cc1CN1CCC2(CC1)CN(c1ccc(C(=O)NCCCS(=O)(=O)O)cc1)C(=O)N2` [Example 66, 3-(4-(8-((2-cyclopropyl-5-ethoxy-4′-fluoro-[1,1′-biphenyl]-4-yl)methyl)-2-oxo-1,3,8-triazaspiro[4.5]decan-3-yl)benzamido)propane-1-sulfonic acid], the IC50 is at most 100 nM.

As to `CCOc1cc(-c2nc(C)no2)c(C2CC2)cc1CN1CCC2(CC1)CN(c1ccc(C(=O)NCCOCCO)cc1)C(=O)N2` [Example 67, 4-(8-(5-cyclopropyl-2-ethoxy-4-(3-methyl-1,2,4-oxadiazol-5-yl)benzyl)-2-oxo-1,3,8-triazaspiro[4.5]decan-3-yl)-N-(2-(2-hydroxyethoxy)ethyl)benzamide], the IC50 was 100 to 1000 nM.

As for `CCOc1cc(-c2nc(C)no2)c(C2CC2)cc1CN1CCC2(CC1)CN(c1ccc(C(=O)NCCCS(=O)(=O)O)cc1)C(=O)N2` [Example 68, 3-(4-(8-(5-cyclopropyl-2-ethoxy-4-(3-methyl-1,2,4-oxadiazol-5-yl)benzyl)-2-oxo-1,3,8-triazaspiro[4.5]decan-3-yl)benzamido)propane-1-sulfonic acid], the IC50 fell in the range of 100 to 1000 nM.

The compound `CCOc1cc(-c2ccc(F)cc2)c(C2CC2)cc1CN1CCC2(CC1)CN(c1ccc(C(=O)NCCO)cc1)C(=O)N2` [Example 69, 4-(8-((2-cyclopropyl-5-ethoxy-4′-fluoro-[1,1′-biphenyl]-4-yl)methyl)-2-oxo-1,3,8-triazaspiro[4.5]decan-3-yl)-N-(2-hydroxyethyl)benzamide] showed an IC50 of at most 100 nM.

In turn, `CCOc1cc(-c2ccc(F)cc2)c(C2CC2)cc1CN1CCC2(CC1)CN(c1ccc(C(=O)NCCOCCOCCO)cc1)C(=O)N2` [Example 70, 4-(8-((2-cyclopropyl-5-ethoxy-4′-fluoro-[1,1′-biphenyl]-4-yl)methyl)-2-oxo-1,3,8-triazaspiro[4.5]decan-3-yl)-N-(2-(2-(2-hydroxyethoxy)ethoxy)ethyl)benzamide] returned an IC50 of at most 100 nM.
